Data as given in ChEMBL document CHEMBL3045737, “Evaluation of toxicity and genotoxic effects of spinosad and deltamethrin in Drosophila melanogaster and Bactrocera oleae” (Pest Manag Sci, 2011).
In brackets after ≈: the same amount, converted by molar mass.

How the values were obtained:
Drosophila melanogaster [1] = assay: Insecticidal activity against Drosophila melanogaster adults assessed as death treated upto 24 hr at 24 +/- 1 degC, 60%RH; type: functional; conditions: for LC50: Drosophila melanogaster, 24 h
Bactrocera oleae [2] = assay: Insecticidal activity against Bactrocera oleae adults assessed as death treated upto 24 hr at 24 +/- 1 degC, 60%RH; type: functional; conditions: for LC50: Bactrocera oleae, 24 h
Bactrocera oleae [3] = assay: Insecticidal activity against Bactrocera oleae adults assessed as death treated upto 120 hr at 24 +/- 1 degC, 60%RH; type: functional; conditions: for LC50: Bactrocera oleae, 120 h
Drosophila melanogaster [4] = assay: Genotoxicity in Drosophila melanogaster larvae at 0.10 to 0.30 mg/l; type: organism-based; conditions: in vivo
Drosophila melanogaster [5] = assay: Insecticidal activity against Drosophila melanogaster adults assessed as death treated upto 72 hr at 24 +/- 1 degC, 60%RH; type: functional; conditions: for LC50: Drosophila melanogaster, 72 h
Drosophila melanogaster [6] = assay: Insecticidal activity against Drosophila melanogaster adults assessed as death treated upto 120 hr at 24 +/- 1 degC, 60%RH; type: functional; conditions: for LC50: Drosophila melanogaster, 120 h
Drosophila melanogaster [7] = assay: Insecticidal activity against Drosophila melanogaster larvae assessed as death at 24 +/- 1 degC, 60%RH; type: functional; conditions: for LC50: Drosophila melanogaster
Drosophila melanogaster [8] = assay: Insecticidal activity against Drosophila melanogaster adults assessed as death treated upto 192 hr at 24 +/- 1 degC, 60%RH; type: functional; conditions: for LC50: Drosophila melanogaster, 192 h
Bactrocera oleae [9] = assay: Insecticidal activity against Bactrocera oleae adults assessed as death treated upto 192 hr at 24 +/- 1 degC, 60%RH; type: functional; conditions: for LC50: Bactrocera oleae, 192 h
Bactrocera oleae [10] = assay: Insecticidal activity against Bactrocera oleae adults assessed as death treated upto 72 hr at 24 +/- 1 degC, 60%RH; type: functional; conditions: for LC50: Bactrocera oleae, 72 h
Drosophila melanogaster [11] = assay: Genotoxicity in Drosophila melanogaster larvae at 7.50 to 10 mg/l; type: organism-based; conditions: in vivo
Drosophila melanogaster [12] = assay: Genotoxicity in Drosophila melanogaster larvae at 10^-3 M; type: organism-based; conditions: in vivo, 1000 µM

| SMILES | LC90 (Drosophila melanogaster [1]) | LC50 (Drosophila melanogaster [1]) | LC90 (Bactrocera oleae [2]) | LC50 (Bactrocera oleae [2]) | LC90 (Bactrocera oleae [3]) | LC50 (Bactrocera oleae [3]) | LC90 (Drosophila melanogaster [5]) | LC50 (Drosophila melanogaster [5]) | LC90 (Drosophila melanogaster [6]) | LC50 (Drosophila melanogaster [6]) | LC90 (Drosophila melanogaster [7]) | LC50 (Drosophila melanogaster [7]) | LC90 (Drosophila melanogaster [8]) | LC50 (Drosophila melanogaster [8]) | LC90 (Bactrocera oleae [9]) | LC50 (Bactrocera oleae [9]) | LC90 (Bactrocera oleae [10]) | LC50 (Bactrocera oleae [10]) | other results |
| --- | --- | --- | --- | --- | --- | --- | --- | --- | --- | --- | --- | --- | --- | --- | --- | --- | --- | --- | --- |
| CC[C@H]1CCC[C@H](O[C@H]2CC[C@H](N(C)C)[C@@H](C)O2)[C@@H](C)C(=O)C2=C[C@@H]3[C@@H](C=C(C)[C@@H]4C[C@@H](O[C@@H]5O[C@@H](C)[C@H](OC)[C@@H](OC)[C@H]5OC)C[C@@H]34)[C@@H]2CC(=O)O1.CC[C@H]1CCC[C@H](O[C@H]2CC[C@H](N(C)C)[C@@H](C)O2)[C@@H](C)C(=O)C2=C[C@@H]3[C@@H](C=C[C@@H]4C[C@@H](O[C@@H]5O[C@@H](C)[C@H](OC)[C@@H](OC)[C@H]5OC)C[C@@H]34)[C@@H]2CC(=O)O1 | 5.604 µg/mL | 3.8 µg/mL | 7.277 µg/mL | 4.06 µg/mL | 0.422 µg/mL | 0.191 µg/mL | 1.998 µg/mL | 1.26 µg/mL | 1.074 µg/mL | 0.75 µg/mL | 0.308 µg/mL | 0.13 µg/mL | 0.367 µg/mL | 0.262 µg/mL | 0.345 µg/mL | 0.111 µg/mL | 0.598 µg/mL | 0.341 µg/mL | Activity (Drosophila melanogaster [4]): Non-toxic |
| CC1(C)[C@H](C(=O)O[C@H](C#N)c2cccc(Oc3ccccc3)c2)[C@@H]1C=C(Br)Br [DELTAMETHRIN] | 31.682 µg/mL (≈ 62.7 µM) | 17.1 µg/mL (≈ 33.8 µM) | 6.033 µg/mL (≈ 11.9 µM) | 2.85 µg/mL (≈ 5.64 µM) | 0.161 µg/mL (≈ 0.319 µM) | 0.176 µg/mL (≈ 0.348 µM) | 14.591 µg/mL (≈ 28.9 µM) | 8.03 µg/mL (≈ 15.9 µM) | 13.599 µg/mL (≈ 26.9 µM) | 7.24 µg/mL (≈ 14.3 µM) | 17.41 µg/mL (≈ 34.5 µM) | 4.96 µg/mL (≈ 9.81 µM) | 10.352 µg/mL (≈ 20.5 µM) | 4.82 µg/mL (≈ 9.53 µM) | 0.398 µg/mL (≈ 0.788 µM) | 0.414 µg/mL (≈ 0.819 µM) | 1.002 µg/mL (≈ 1.98 µM) | 0.344 µg/mL (≈ 0.681 µM) | Activity (Drosophila melanogaster [11]): Non-toxic |
| CCOS(C)(=O)=O [METHANESULFONIC ACID ETHYL ESTER] |  |  |  |  |  |  |  |  |  |  |  |  |  |  |  |  |  |  | Activity (Drosophila melanogaster [12]): Toxic |
